Experimental data published in patent publication US11999964B2, “Synthetic mammalian signaling circuits for robust cell population control” (California Institute of Technology, priority 2020, dated 2024).

Test system: cheaters from the negative feedback condition
Assay: AP1903 killing of cheaters from the negative feedback condition
Assay type: cell-based, Hamster
Settings: 50 nM AP1903, two days, even in the presence of NAA
Text: FIGS. 12A-12C depict non-limiting exemplary data showing the paradoxical circuit allows mutationally robust population control. (FIG. 12A) Cell lines evolved under paradoxical conditions are phenotypically different from cheaters evolved under negative feedback. Each dot represents one culture. Cells evolved under the negative feedback conditions form a tight cluster, which is fitted with a 2-D gaussian to show the 95 percentile (orange dashed ellipse). […] (FIG. 12B) Under paradoxical, but not negative feedback, conditions, mutations that reduce auxin sensing lead to apoptosis in cheaters (red inhibitory arrow), preventing unregulated growth and mutational escape. […] Cells were incubated with different levels of NAA for 6 hours, and then 50 nM of AP1903 was added (except in controls) for another two days. Confluencies were measured and normalized to the no AP1903 control (n=3).

CC[C@H](C(=O)N1CCCC[C@H]1C(=O)O[C@H](CCc1ccc(OC)c(OC)c1)c1cccc(OCC(=O)NCCNC(=O)COc2cccc([C@@H](CCc3ccc(OC)c(OC)c3)OC(=O)[C@@H]3CCCCN3C(=O)[C@@H](CC)c3cc(OC)c(OC)c(OC)c3)c2)c1)c1cc(OC)c(OC)c(OC)c1 [AP1903]
Effect of iCasp9 activation by AP1903 on cheaters: kills cheaters
